This note sets out measurements from BindingDB's records for doi:10.1021/jm7011563 (University of Siena, 2008).

What is called pIC50 is the negative decadic logarithm of the IC50, by convention in mol/L. Higher therefore signals a small IC50.

This test concerns the target T1, Type-1 angiotensin II receptor A (Rattus norvegicus, UniProt P25095).
T1 sequence (P25095 whole entry): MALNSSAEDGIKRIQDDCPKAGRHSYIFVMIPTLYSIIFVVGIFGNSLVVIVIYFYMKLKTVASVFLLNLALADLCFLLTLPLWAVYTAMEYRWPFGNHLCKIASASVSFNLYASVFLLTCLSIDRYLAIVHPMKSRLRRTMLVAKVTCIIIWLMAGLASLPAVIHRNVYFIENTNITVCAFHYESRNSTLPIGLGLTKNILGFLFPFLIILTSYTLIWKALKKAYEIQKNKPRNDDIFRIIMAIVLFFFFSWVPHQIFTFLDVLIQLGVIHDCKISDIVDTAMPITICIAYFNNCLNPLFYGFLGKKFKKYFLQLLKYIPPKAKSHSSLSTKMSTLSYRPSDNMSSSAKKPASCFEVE
Kind of test: Displacement of [125I]Sar1,Ile8-Ang2 from AT1 receptor in Wistar rat hepatic membrane. On the technique in general: Displacement assays read how much labelled ligand stays bound in the presence of the test substance.

pIC50: −log10 of the molar value.

`CCc1c2[nH]cccc-2c(=O)n1Cc1ccc(-c2ccccc2-c2nnn[nH]2)cc1` showed a negative logarithm of the IC50 (pIC50) below 5.00.

`O=c1c2ccc[nH]c-2cn1Cc1ccc(-c2ccccc2-c2nnn[nH]2)cc1` showed a pIC50 below 5.00.
